Reference: US11220661B2, “Compositions comprising taurate surfactants and methods of using the compositions” (Colgate-Palmolive Company, priority 2016, dated 2022)

Columns and labels:
[1] = test system: proinflammatory cytokines IL-1a, IL-6, IL-8, TNF-a in 3D EpiDerm skin models; assay: Multiple inflammation biomarker assay on SDS-irritated 3D EpiDerm skin models; settings: for cytokine levels (IL-1a, IL-6, IL-8, TNF-a; FIGS. 2A-2D, % control): 0.02 wt. % SDS-irritated skin samples, 30 ul of 1% test solution in PBS topically for 1 hour, then 24 hours incubation, Milliplex assay
Description: To document the effect on skin inflammation, in vitro experiments using 3D EpiDerm skin models (SIT 200 skin irritation model, MatTek Corporation, Ashland, Mass.) were conducted. An irritant chemical, sodium dodecyl sulfate (0.02 wt. % SDS), was used to induce skin irritation in in vitro skin samples. After the inducement of skin irritation, the in vitro skin samples were each treated topically with one of two 30 ul test solutions (either a 1% Taurine in PBS solution or a 1% Sodium methyl oleoyl taurate in PBS solution) for 1 hour in a tissue culture incubator (37 degree C., 5% CO2). Following the incubation, the skin samples were washed with PBS and placed in a culture medium and further incubated for 24 hours. Tissue was harvested and homogenized for a multiple inflammation biomarker assay, testing levels of IL-1, IL-6, IL-8 and TNF-a. Biomarkers were analyzed by a Milliplex assay kit. (Millipore, Billerica, Mass.).
The irritant chemical, sodium dodecyl sulfate (SDS), that was used is commonly used as a […] control in irritation/inflammation assays on MatTek tissue. The multiple biomarker assay of Example 2 measured the levels of proinflammatory cytokines, including IL-1a, IL-6, IL-8, TNF-a, in one assay to evaluate the level of skin irritation/inflammation. The more cytokines released, the greater the irritation and/or inflammation potential.

HaCaT cells = assay: Cell migration assay (scratch gap closure); format: cell-based, human; settings: 0.01% by weight in DMEM culture medium, 24 hours, vs control medium
Description: Three different culture medium samples were prepared. A control medium that included a Dulbecco's modified Eagle's medium (DMEM) comprising actives of 10% Fetal Bovine Serum and 1% Penicillin Streptomycin; a taurine medium that was the same as the control medium but included 0.01% by weight Taurine; and a taurate medium that was the same as the control medium but included 0.01% by weight Sodium Methyl Oleoyl Taurate. To determine the effect of both Taurine (0.01%) and Sodium Methyl Oleoyl Taurate (0.01%) on the cellular repair function, in vitro experiments were conducted using HaCaT cells. HaCaT cells are a spontaneously transformed aneuploid immortal keratinocyte cell line from adult human skin. Three sample wells of the HaCaT cells were each grown until 100% confluent. After that, each well was scratched with a 1000 microliter (ul) tip (to create the gap) and washed twice with 1 milliliter (ml) of phosphate buffered saline (“PBS”) to eliminate dead floating cells. Following that, each one of the three sample wells were treated with 1 ml of one of the three culture medium samples: one with the control medium, one with the taurine (0.01%) medium, and one with the sodium methyl oleoyl taurate (0.01%) medium. Then, initial measurements of gap distance were taken using a microscope (OLYMPUS IX71). […]

[2] = test system: IL-1a in 3D EpiDerm skin models; assay: Irritation biomarker (IL-1a) assay on 3D EpiDerm skin models; format: cell-based, human; settings: 6.8% in combar base, p-value of 0.03 vs combar base
Text: Two separate combar samples were formulated, one with taurine and one with sodium methyl oleoyl taurate. Both the taurine and sodium methyl oleoyl taurate were formulated at the same molar concentration in the combar samples. The weight concentrations of taurine and methyl oleoyl taurate in their respective combar bases was as follows:
Taurine combar sample—2% Taurine (obtained from Qianjiang Yongan Pharmaceutical, Wuhan, China), 98% Combar;
Taurate combar sample—6.8% Sodium Methyl Oleoyl Taurate (obtained from Rhodia Solvay Group), 93.2% Combar.
Samples for testing were made by mixing the taurine combar and taurate combar in PBS (1% weight by volume combar base of each of the taurine combar and sodium methyl oleoyl taurate combar in PBS).
Separate In vitro skin samples were treated topically with 30 ul each of the taurine combar and taurate combar test samples for 1 hour in a tissue culture incubator. […] Tissue was harvested and homogenized for a IL-1a assay. IL-1a levels were analyzed using a Human IL-1 alpha/IL-1F1 Quantikine ELISA kit available from R&D Systems, Minneapolis, Minn. Among cytokines released along the inflammation pathway, IL-1a is recognized as a prominent irritation biomarker. The more IL-1a that is released, the greater is the irritation potential.
Thus, the combar base was used as a negative control on the MatTek tissue.

SMILES	expression of cytokines IL-1a, IL-6, IL-8 and TNF-a by the irritant ([1]; 0.02 wt. % SDS on 3D EpiDerm)	cell migration rate (% reduction in gap distance, FIG. 1) (HaCaT cells)	cytokine levels (IL-1a, IL-6, IL-8, TNF-a; FIGS. 2A-2D, % control) [1]	irritation potential of the combar base [2]
CCCCCCCCCCCCOS(=O)(=O)[O-].[Na+] [SDS, Sodium Dodecyl Sulfate]	induced	–	–	–
CCCCCCCC/C=C\CCCCCCCC(=O)N(C)CCS(=O)(=O)[O-].[Na+] [sodium methyl oleoyl taurate]	–	comparable enhancement in cell migration rate	suppressed	significantly reduced
NCCS(=O)(=O)O [taurine, 2-aminoethylsulphonic acid]	–	comparable enhancement in cell migration rate	suppressed	–
